Measured values as given in patent US20250388574A1, “HETEROCYCLIC COMPOUNDS AS TRIGGERING RECEPTOR EXPRESSED ON MYELOID CELLS 2 AGONISTS AND METHODS OF USE” (AMGEN INC., priority 2020, published 2025).

Target: hTREM2 (Homo sapiens, UniProt Q9NZC2)
Assay: Phospho-Syk AlphaScreen/AlphaLISA assay in TREM2 and DAP12 overexpressing HEK293 cells (Example A1)
Type: cell-based
Set-up: expressed in transfected cells
Conditions: HEK293 cells; for EC50: read-out: hTREM2 EC50
Summary of the method: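 Agonism read as Syk phosphorylation: compounds in 1% DMSO applied 45 min at room temperature to TREM2/DAP12-HEK293 cells after 20 h culture. Lysis buffer with phosphatase inhibitors and anti-phospho-Syk plus biotinylated anti-Syk antibodies, then AlphaLISA beads (680 nm excitation); percent of control computed from antibody/isotype wells, curves fitted sigmoidally.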

hTREM2, sequence (Q9NZC2 19-230): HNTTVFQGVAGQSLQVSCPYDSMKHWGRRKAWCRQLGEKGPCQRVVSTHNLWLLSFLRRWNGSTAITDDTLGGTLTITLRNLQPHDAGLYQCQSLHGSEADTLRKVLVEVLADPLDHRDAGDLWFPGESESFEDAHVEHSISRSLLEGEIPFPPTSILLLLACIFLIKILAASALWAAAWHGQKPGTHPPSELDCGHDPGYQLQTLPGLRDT
hTREM2, sequence (O43914 22-113 partner): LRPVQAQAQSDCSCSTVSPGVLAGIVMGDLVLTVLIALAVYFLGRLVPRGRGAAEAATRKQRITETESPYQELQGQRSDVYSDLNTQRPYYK

Compound	Emax	EC50 [µM]
Cc1nc2cc(N3CC[C@H](N4CCOCC4)C3)nc(-c3ccc(Cl)cc3F)c2c(=O)n1C [Example 208, (S)-5-(4-chloro-2-fluorophenyl)-2,3-dimethyl-7-(3-morpholinopyrrolidin-1-yl)pyrido[4,3-d]pyrimidin-4(3H)-one]	++ (Emax>100 and ≤200)	3 to 100
Cc1nc2cc(N3CCO[C@H](c4cccnc4)C3)nc(-c3ccc(Cl)cc3F)c2c(=O)n1C [Example 210, (R)-5-(4-chloro-2-fluorophenyl)-2,3-dimethyl-7-(2-(pyridin-3-yl)morpholino)pyrido[4,3-d]pyrimidin-4(3H)-one]	++++ (Emax>300)	0.05 to 0.5
CCCn1c(C)nc2cc(N3CCO[C@H](c4cnn(C)c4)C3)nc(-c3ncc(Cl)cc3F)c2c1=O [Example 215, (R)-5-(5-chloro-3-fluoropyridin-2-yl)-2-methyl-7-(2-(1-methyl-1H-pyrazol-4-yl)morpholino)-3-propylpyrido[4,3-d]pyrimidin-4(3H)-one]	++++ (Emax>300)	3 to 100
Cc1nc2cc(N3CCO[C@H](c4cnn(C)c4)C3)nc(-c3ncc(Cl)cc3F)c2c(=O)n1C [Example 217, (R)-5-(5-chloro-3-fluoropyridin-2-yl)-2,3-dimethyl-7-(2-(1-methyl-1H-pyrazol-4-yl)morpholino)pyrido[4,3-d]pyrimidin-4(3H)-one]	+++ (Emax>200 and ≤300)	3 to 100
Cc1nc2cc(N3CCO[C@H](c4cnn(C)c4)C3)nc(-c3ccccc3F)c2c(=O)n1C [Example 218, (R)-5-(2-fluorophenyl)-2,3-dimethyl-7-(2-(1-methyl-1H-pyrazol-4-yl)morpholino)pyrido[4,3-d]pyrimidin-4(3H)-one]	+++ (Emax>200 and ≤300)	3 to 100
Cc1nc2cc(N3CCO[C@@](C)(C4CC4)C3)nc(-c3ccc(Cl)cc3F)c2c(=O)n1C [Example 219, (S)-5-(4-chloro-2-fluorophenyl)-7-(2-cyclopropyl-2-methylmorpholino)-2,3-dimethylpyrido[4,3-d]pyrimidin-4(3H)-one]	++ (Emax>100 and ≤200)	0.5 to 3
Cc1nc2cc(N3CCO[C@H](c4cnn(C)c4)C3)cc(-c3ccc(Cl)cc3F)c2c(=O)n1C [Example 221, (R)-5-(4-chloro-2-fluorophenyl)-2,3-dimethyl-7-(2-(1-methyl-1H-pyrazol-4-yl)morpholino)quinazolin-4(3H)-one]	++++ (Emax>300)	0.05 to 0.5
Cc1cnc2n1CCN(c1cc3nc(C)n(C)c(=O)c3c(-c3ccc(Cl)cc3F)n1)C2 [Example 223, 5-(4-chloro-2-fluorophenyl)-2,3-dimethyl-7-(3-methyl-5,6-dihydroimidazo[1,2-a]pyrazin-7(8H)-yl)pyrido[4,3-d]pyrimidin-4(3H)-one]	++ (Emax>100 and ≤200)	3 to 100
Cc1nc2cc(N3CCO[C@H](c4ccncc4)C3)nc(-c3ccc(Cl)cc3F)c2c(=O)n1C [Example 226, (R)-5-(4-chloro-2-fluorophenyl)-2,3-dimethyl-7-(2-(pyridin-4-yl)morpholino)pyrido[4,3-d]pyrimidin-4(3H)-one]	++++ (Emax>300)	0.05 to 0.5
Cc1nc2cc(N3CCO[C@@H](c4cnn(C)c4)C3)nc(-c3cccc(F)c3F)c2c(=O)n1C [Example 227, (S)-5-(2,3-difluorophenyl)-2,3-dimethyl-7-(2-(1-methyl-1H-pyrazol-4-yl)morpholino)pyrido[4,3-d]pyrimidin-4(3H)-one]	+++ (Emax>200 and ≤300)	3 to 100
Cc1nc2cc(N3CCO[C@@H](c4cnn(C)c4)C3)nc(-c3cc(F)ccc3F)c2c(=O)n1C [Example 228, (S)-5-(2,5-difluorophenyl)-2,3-dimethyl-7-(2-(1-methyl-1H-pyrazol-4-yl)morpholino)pyrido[4,3-d]pyrimidin-4(3H)-one]	+++ (Emax>200 and ≤300)	0.5 to 3
Cc1nc2cc(N3CCO[C@@H](c4cnn(C)c4)C3)nc(-c3ccc(F)cc3)c2c(=O)n1C [Example 229, (S)-5-(4-fluorophenyl)-2,3-dimethyl-7-(2-(1-methyl-1H-pyrazol-4-yl)morpholino)pyrido[4,3-d]pyrimidin-4(3H)-one]	++++ (Emax>300)	0.5 to 3
Cc1nc2cc(N3CCC[C@H](c4ccncc4)C3)nc(-c3ccc(Cl)cc3F)c2c(=O)n1C [Example 233, (R)-5-(4-chloro-2-fluorophenyl)-2,3-dimethyl-7-(3-(pyridin-4-yl)piperidin-1-yl)pyrido[4,3-d]pyrimidin-4(3H)-one]	++++ (Emax>300)	0.05 to 0.5

The next lines start with the values.

Emax	EC50 [µM]	Compound
+++ (Emax>200 and ≤300)	0.5 to 3	Cc1nc2cc(N3CCO[C@H](c4ccccn4)C3)nc(-c3ccc(Cl)cc3F)c2c(=O)n1C [Example 209, (S)-5-(4-chloro-2-fluorophenyl)-2,3-dimethyl-7-(2-(pyridin-2-yl)morpholino)pyrido[4,3-d]pyrimidin-4(3H)-one]
+++ (Emax>200 and ≤300)	3 to 100	Cc1nc2cc(N3CCO[C@H](c4cnn(C)c4)C3)nc(-c3ccc(Cl)cn3)c2c(=O)n1C [Example 211, (R)-5-(5-chloropyridin-2-yl)-2,3-dimethyl-7-(2-(1-methyl-1H-pyrazol-4-yl)morpholino)pyrido[4,3-d]pyrimidin-4(3H)-one]
++++ (Emax>300)	3 to 100	Cc1nc2cc(N3CCO[C@@H](c4cnn(C)c4)C3)nc(-c3ccc(Cl)cn3)c2c(=O)n1C [Example 212, (S)-5-(5-chloropyridin-2-yl)-2,3-dimethyl-7-(2-(1-methyl-1H-pyrazol-4-yl)morpholino)pyrido[4,3-d]pyrimidin-4(3H)-one]
++++ (Emax>300)	3 to 100	Cc1nc2cc(N3CCC[C@H](c4ccccc4)C3)nc(-c3ccc(Cl)cc3F)c2c(=O)n1C [Example 213, (R)-5-(4-chloro-2-fluorophenyl)-2,3-dimethyl-7-(3-phenylpiperidin-1-yl)pyrido[4,3-d]pyrimidin-4(3H)-one]
++++ (Emax>300)	0.05 to 0.5	Cc1nc2cc(N3CCC[C@H](c4cnn(C)c4)C3)nc(-c3ccc(Cl)cc3F)c2c(=O)n1C [Example 214, (R)-5-(4-chloro-2-fluorophenyl)-2,3-dimethyl-7-(3-(1-methyl-1H-pyrazol-4-yl)piperidin-1-yl)pyrido[4,3-d]pyrimidin-4(3H)-one]
++++ (Emax>300)	0.5 to 3	Cc1nc2cc(N3CCO[C@@H](c4cnn(C)c4)C3)nc(-c3ncc(Cl)cc3F)c2c(=O)n1C [Example 216, (S)-5-(5-chloro-3-fluoropyridin-2-yl)-2,3-dimethyl-7-(2-(1-methyl-1H-pyrazol-4-yl)morpholino)pyrido[4,3-d]pyrimidin-4(3H)-one]
++++ (Emax>300)	0.05 to 0.5	Cc1nc2cc(N3CCO[C@H](c4cnn(C)c4)C3)nc(-c3ccc(Cl)cc3)c2c(=O)n1C [Example 220, (R)-5-(4-chlorophenyl)-2,3-dimethyl-7-(2-(1-methyl-1H-pyrazol-4-yl)morpholino)pyrido[4,3-d]pyrimidin-4(3H)-one]
++ (Emax>100 and ≤200)	0.5 to 3	Cc1nc2cc(N3CCc4ncn(C)c4C3)nc(-c3ccc(Cl)cc3F)c2c(=O)n1C [Example 222, 5-(4-chloro-2-fluorophenyl)-2,3-dimethyl-7-(3-methyl-3,4,6,7-tetrahydro-5H-imidazo[4,5-c]pyridin-5-yl)pyrido[4,3-d]pyrimidin-4(3H)-one]
+++ (Emax>200 and ≤300)	0.5 to 3	Cc1nc2cc(N3CCO[C@@](C)(c4cnn(C)c4)C3)nc(-c3ccc(Cl)cc3F)c2c(=O)n1C [Example 224, (S)-5-(4-chloro-2-fluorophenyl)-2,3-dimethyl-7-(2-methyl-2-(1-methyl-1H-pyrazol-4-yl)morpholino)pyrido[4,3-d]pyrimidin-4(3H)-one]
++++ (Emax>300)	0.5 to 3	Cc1nc2cc(N3CCO[C@](C)(c4cnn(C)c4)C3)nc(-c3ccc(Cl)cc3F)c2c(=O)n1C [Example 225, (R)-5-(4-chloro-2-fluorophenyl)-2,3-dimethyl-7-(2-methyl-2-(1-methyl-1H-pyrazol-4-yl)morpholino)pyrido[4,3-d]pyrimidin-4(3H)-one]
++++ (Emax>300)	0.5 to 3	Cc1noc([C@H]2CCCN(c3cc4nc(C)n(C)c(=O)c4c(-c4ccc(Cl)cc4F)n3)C2)n1 [Example 230, (S)-5-(4-chloro-2-fluorophenyl)-2,3-dimethyl-7-(3-(3-methyl-1,2,4-oxadiazol-5-yl)piperidin-1-yl)pyrido[4,3-d]pyrimidin-4(3H)-one]
+++ (Emax>200 and ≤300)	0.5 to 3	Cc1cnn([C@H]2CCCN(c3cc4nc(C)n(C)c(=O)c4c(-c4ccc(Cl)cc4F)n3)C2)c1 [Example 231, (S)-5-(4-chloro-2-fluorophenyl)-2,3-dimethyl-7-(3-(4-methyl-1H-pyrazol-1-yl)piperidin-1-yl)pyrido[4,3-d]pyrimidin-4(3H)-one]
++++ (Emax>300)	0.5 to 3	Cc1nc2cc(N3CCC[C@H](N4CCCC4=O)C3)nc(-c3ccc(Cl)cc3F)c2c(=O)n1C [Example 232, (S)-5-(4-chloro-2-fluorophenyl)-2,3-dimethyl-7-(3-(2-oxopyrrolidin-1-yl)piperidin-1-yl)pyrido[4,3-d]pyrimidin-4(3H)-one]
++ (Emax>100 and ≤200)	3 to 100	Cc1cn2c(n1)CN(c1cc3nc(C)n(C)c(=O)c3c(-c3ccc(Cl)cc3F)n1)CC2 [Example 234, 5-(4-chloro-2-fluorophenyl)-2,3-dimethyl-7-(2-methyl-5,6-dihydroimidazo[1,2-a]pyrazin-7(8H)-yl)pyrido[4,3-d]pyrimidin-4(3H)-one]
